Reference: patent publication US6887846B2, “Antimicrobial amino acid sequences derived from alpha-melanocyte-stimulating hormone” (priority 1999, dated 2005)
Entries after “also recorded” stand apart in the source; their conditions may differ.

How the values were obtained:
S. aureus (ATCC 29213) = test: Trial of melanocortin peptides on S. aureus viability (colony formation); type: cell-based; conditions: peptide 10^−15 to 10^−4M, 2 hours at 37° C., compared to controls
Procedure: S. aureus (ATCC 29213) and C. albicans (clinical isolate) were obtained from the collection of the Department of Microbiology, Ospedale Maggiore di Milano. C. albicans were maintained on Sabouraud'[…] periodically transferred to Sabouraud's agar plates and incubated for 48 hours at 28° C. To prepare stationary growth phase yeast, a colony was taken from the agar plate and transferred into 30 ml Sabouraud-dextrose broth and incubated for 72 hours at 32° C. Cells were centrifuged at 1000×g for 10 minutes and the pellet was washed twice with distilled water. Cells were counted and suspended in Hank's balanced salt solution (“HBSS”) to the desired concentration. Viability, determined by the exclusion of 0.01% methylene blue, remained >98%. […] Cells were then washed in cold distilled water and diluted with HBSS to a concentration of 100 organisms/ml. One ml aliquots were dispensed on blood agar plates and incubated for 24 hours at 37° C. Organism viability was estimated from the number of colonies formed.

S. aureus = test: Influence on urokinase-induced growth enhancement of S. aureus; type: cell-based; conditions: peptide 10^−6M, urokinase 500 U, 4 hours at 37° C.; p<0.001 vs urokinase alone
Text: In experiments on S. aureus we determined the influence of α-MSH on urokinase-induced growth-enhancement. Hart, D. A., Loule, T., Krulikl, W., Reno, C., Staphylococcus Aureus Strains Differ in Their in Vitro Responsiveness to Human Urokinase: Evidence That Methicillin-resistant Strains Are Predominantly Nonresponsive to the Growth-enhancing Effects of Urokinase, Can. J. Microbiol. 42, 1024-31 (1966). […] Appropriate dilutions of S. aureus were dispensed on agar plates and colonies counted after 24 hours incubation at 37° C.

[1] = test system: C. albicans (clinical isolate); test: Trial of melanocortin peptides on C. albicans viability (colony formation); type: cell-based; conditions: for C. albicans colony forming units (CFU): peptide 10^−15 to 10^−4M, 2 hours at 37° C., compared to controls; for reduction of C. albicans CFU at higher concentrations: up to 10^-4M
Procedure: S. aureus (ATCC 29213) and C. albicans (clinical isolate) were obtained from the collection of the Department of Microbiology, Ospedale Maggiore di Milano. C. albicans were maintained on Sabouraud'[…] periodically transferred to Sabouraud's agar plates and incubated for 48 hours at 28° C. To prepare stationary growth phase yeast, a colony was taken from the agar plate and transferred into 30 ml Sabouraud-dextrose broth and incubated for 72 hours at 32° C. Cells were centrifuged at 1000×g for 10 minutes and the pellet was washed twice with distilled water. Cells were counted and suspended in Hank's balanced salt solution (“HBSS”) to the desired concentration. […] Cells were then washed in cold distilled water and diluted with HBSS to a concentration of 100 organisms/ml. One ml aliquots were dispensed on blood agar plates and incubated for 48 hours at 37° C. Organism viability was estimated from the number of colonies formed. […] There were at least six replicates for each concentration of peptide. […] The reaction was stopped after 3 minutes by the addition of ice cold ethanol. cAMP was measured in duplicate using a commercial enzyme immunoassay (EIA) kit (Amersham, United Kingdom) after extraction via the liquid-phase method according to manufacturer's instructions.

[2] = test system: C. albicans killing by human neutrophils; test: Trial of α-MSH peptides on C. albicans killing by human neutrophils; type: cell-based; conditions: 2 hours at 37° C., vs medium alone
Procedure: Venous blood (20 ml) from healthy volunteers was anticoagulated with heparin. Neutrophils were isolated using dextran sedimentation and Ficoll-Hypaque (Sigma Chemical Co., St. Louis, Mo., USA) centrifugation. Erythrocytes were lysed via hypotonic shock. Neutrophils represented at least 97% of the cell suspension. Cell viability, estimated by trypan blue exclusion, was >98%. Neutrophils were suspended to final concentration in HBSS. […] After incubation, the culture tubes were placed on ice to stop growth and extracellular organisms were washed twice with centrifugation at 1000×g at 4° C. A 2.5% sodium desoxycholate solution was added to the suspension and the tubes were shaken for 5 min. Cold distilled water was added to obtain a suspension of 10^6 cells/ml. Two 1/100 serial dilution in HBSS were made to obtain a final suspension of 100 cells/ml. Aliquots of 1 ml were dispensed on blood agar plates and incubated for 48 hours at 37° C. Colony forming units (“CFU”) were counted at the end of the incubation period. Experiments were run in triplicate and repeated using blood from 5 different donors.

cAMP = test: Trial of α-MSH peptides on cAMP accumulation in C. albicans; type: cell-based; conditions: 10^−6M; for cAMP content of C. albicans: 3 minutes at 37° C., permeabilized yeast; for increase in cAMP compared with forskolin: equimolar
Procedure: The reaction was stopped after 3 minutes by the addition of ice cold ethanol. cAMP was measured in duplicate using a commercial enzyme immunoassay (EIA) kit (Amersham, United Kingdom) after extraction via the liquid-phase method according to manufacturer's instructions. The effect of forskolin (10^−6M) on C. albicans colony formation was determined using the same procedures as for α-MSH peptides.

HIV-1 = conditions: acutely and chronically infected monocytes; cited from earlier work
[3] = vs α-MSH; cited from earlier work

With SYSMEHFRWGKPV [α-MSH (1-13)] the “S. aureus colony formation (CFU)” value (S. aureus (ATCC 29213)) was “significantly decreased S. aureus colony forming units; also recorded: inhibited S. aureus colony formation”, the “urokinase-enhanced S. aureus colony formation” value (S. aureus) was “significantly inhibited this urokinase-enhancing effect; also recorded: significantly inhibited the enhancing effect of urokinase” and the “C. albicans colony forming units (CFU)” value [1] was “significantly decreased C. albicans colony forming units; also recorded: greatly reduced”. For the same substance, the “killing of C. albicans by human neutrophils” value [2] was “enhanced killing of C. albicans by human neutrophils”, the “cAMP content of C. albicans” value (cAMP) was “enhanced cAMP content in the yeast” and the “increase in cAMP compared with forskolin” value (cAMP) was “same order of magnitude as that induced by equimolar forskolin”. For the same substance, the HIV-1 replication (HIV-1) was “inhibits HIV-1 replication in acutely and chronically infected monocytes”.
For “ACTH (1-39): adrenocorticotropic hormone (1-39), melanocortin peptide (SYSMEHFRWGKPVGKKRRPVKVYPNGAEDESAEAFPLEF; Corticotropin; UniProt P01189 138-176, looked up) [reference compound]”, the “relative potency in reducing C. albicans viability” value ([1]; 10^−6M) was “did not reduce C. albicans viability” and the “reduction of C. albicans CFU at higher concentrations” value [1] was “ineffective”.
For “HFRWGKPV (Ac-HFRWGKPV-NH2) [α-MSH (6-13)]”, the “relative potency in reducing C. albicans viability” value ([1]; 10^−6M) was “most effective”.
With “NH2-Lys-Pro-Val-AcCys-CysAc-Val-Pro-Lys-NH2 [KPV dimer]” the “S. aureus colony formation (CFU)” value (S. aureus (ATCC 29213)) was “significantly decreased S. aureus colony forming units; also recorded: inhibited S. aureus colony formation”, the “effectiveness against microbes compared with α-MSH (11-13)” value ([1]; S. aureus and C. albicans) was “at least as effective as α-MSH (11-13) against microbes” and the “C. albicans colony forming units (CFU)” value [1] was “significantly decreased C. albicans colony forming units; also recorded: inhibited C. albicans colony formation”.
For “KPV (Ac-Lys-Pro-Val-NH2) [α-MSH (11-13)]”, the “S. aureus colony formation (CFU)” value (S. aureus (ATCC 29213)) was “significantly decreased S. aureus colony forming units; also recorded: inhibited S. aureus colony formation”, the “urokinase-enhanced S. aureus colony formation” value (S. aureus) was “significantly inhibited this urokinase-enhancing effect; also recorded: significantly inhibited the enhancing effect of urokinase” and the “relative potency in reducing C. albicans viability” value ([1]; 10^−6M) was “most effective”. The “C. albicans colony forming units (CFU)” value [1] was “significantly decreased C. albicans colony forming units; also recorded: greatly reduced”, the “killing of C. albicans by human neutrophils” value [2] was “enhanced killing of C. albicans by human neutrophils” and the “cAMP content of C. albicans” value (cAMP) was “enhanced cAMP content in the yeast”. The “increase in cAMP compared with forskolin” value (cAMP) was “same order of magnitude as that induced by equimolar forskolin”.
For [Nle^4,D-Phe^7]-α-MSH, the “potency in reducing fever relative to the parent peptide” value [3] is listed as “approximately 10 times”.
With “ACTH (18-39): ACTH fragment (18-39) (CLIP) [reference compound]” the “relative potency in reducing C. albicans viability” value ([1]; 10^−6M) was “did not reduce C. albicans viability” and the “reduction of C. albicans CFU at higher concentrations” value [1] was “ineffective”.
In the case of MEHFRWG (Ac-MEHFRWG-NH2) [α-MSH (4-10)], the “inhibition of C. albicans CFU” value ([1]; 10^−6M) is reported as “approximately 50%”.
